# Measurements published in patent US4210749A, “Substituted 1,2,4,5-tetrahydro-3H,3 benzazepines” (priority 1979, dated 1980).
# Counter-ions that a name gives are not always drawn. Like-named read-outs stand apart in the source and are kept apart here.
# How the values were obtained:
# Assay type in all cases: in vivo
# [1] = I.P. symptomatology (highest tolerated dose, median lethal dose), Table IV; settings: for LD50 / MTD: in vivo, ip; for MTD: read-out: HTD (highest tolerated dose)
# [2] = Narcotic antagonism I.P., Table IV
# [3] = system: sciatic block; assay: Local anesthetic sciatic block, Table IV; settings: 1%
# [4] = Analgesic activity, hot plate method
# [5] = Analgesic activity, writhing method
Compound,LD50 [1],MTD [1],Narcotic Antagonism [2],Local Anesthetic Sciatic Block [3],further results
"Oc1ccc2c(c1)CCN(C[C@@H]1C[C@H]1c1ccccc1)CC2 (relative stereo) [Example 30, 7-Hydroxy-3(trans-2-phenylcyclopropylmethyl)-1,2,4,5-tetrahydro-3H,3-benzazepine]",> 1000 mg/kg,1000 mg/kg,Negative,–,–
"C[C@H]1Cc2ccccc2CCN1 (single isomer, unassigned) [Example 48, (-)-2-Methyl-1,2,4,5-tetrahydro-3H,3-benzazepine]",60 mg/kg,30 mg/kg,Some,Positive,–
"C[C@@H]1Cc2ccccc2CCN1 (single isomer, unassigned) [Example 49, (+)-2-Methyl-1,2,4,5-tetrahydro-3H,3-benzazepine hydrochloride]",200 mg/kg,30 mg/kg,Negative,Positive,–
"C[C@H]1Cc2ccccc2CCN1C (single isomer, unassigned) [Example 50, (+)-2,3-Dimethyl-1,2,4,5-tetrahydro-3H,3-benzazepine hydrochloride]",–,10 mg/kg,Negative,Positive,LD50 (median lethal dose) [1]: 25 mg/kg
"C[C@@H]1Cc2ccccc2CCN1C (single isomer, unassigned) [Example 54, (-)-2,3-Dimethyl-1,2,4,5-tetrahydro-3H,3-benzazepine hydrochloride]",60 mg/kg,3 mg/kg,Negative,Positive,–
"COc1ccc2c(c1)CC(C)NCC2 (single isomer, unassigned; (+)) [Example 53, (+)-8-Methoxy-2-methyl-1,2,4,5-tetrahydro-3H,3-benzazepine hydrochloride]",–,–,Negative,Positive,HTD (highest tolerated dose) [1]: 10 mg/kg
"CC(C)=CCN1CCc2ccc(O)cc2CC1C (single isomer, unassigned; (+)) [Example 56, (+)-3-(3,3-Dimethylallyl)-8-hydroxy-2-methyl-1,2,4,5-tetrahydro-3H,3-benzazepine hydrochloride]",–,–,–,Positive,HTD (highest tolerated dose) [1]: 10 mg/kg; Narcotic Antagonism ([2]; hydrochloride): Negative
"CC1Cc2cc(O)ccc2CCN1C (single isomer, unassigned; (+)) [Example 57, (+)-8-Hydroxy-2,3-dimethyl-1,2,4,5-tetrahydro-3H,3-benzazepine hydrochloride]",> 100 mg/kg,10 mg/kg,–,Positive,–
"COc1ccc2c(c1)CC(C)N(C)CC2 (single isomer, unassigned; (+)) [Example 62, (+)-8-Methoxy-2,3-dimethyl-1,2,4,5-tetrahydro-3H,3-benzazepine hydrochloride]",–,–,Negative,Positive,HTD (highest tolerated dose) ([1]; hydrochloride): 10 mg/kg
"COc1ccc2c(c1)CC(C)NCC2 (single isomer, unassigned; (-)) [Example 51, (-)8-Methoxy-2-methyl-1,2,4,5-tetrahydro-3H,3-benzazepine]",–,10 mg/kg,Negative,Positive,–
"CC(C)=CCN1CCc2ccc(O)cc2CC1C (single isomer, unassigned; (-)) [Example 55, (-)-3-(3,3-Dimethylallyl)-8-hydroxy-2-methyl-1,2,4,5-tetrahydro-3H,3-benzazepine hydrochloride]",–,10 mg/kg,–,Positive,–
"COc1ccc2c(c1)CC(C)N(C)CC2 (single isomer, unassigned; (-)) [Example 63, (-)-8-Methoxy-2,3-dimethyl-1,2,4,5-tetrahydro-3H,3-benzazepine hydrochloride]",–,–,Negative,Positive,HTD (highest tolerated dose) ([1]; hydrochloride): 3 mg/kg
"COc1ccc2c3c1O[C@H]1[C@@H](O)C=C[C@H]4[C@@H](C2)N(C)CC[C@@]341 [Codeine, reference compound]",–,–,–,–,ED50 ([4]; ip): 12 mg/kg; ED50 ([4]; po): 20 mg/kg; ED50 ([5]; po): 17 mg/kg
"Oc1ccc2c(c1)CCNCC2 [Example 2, 7-Hydroxy-1,2,4,5-tetrahydro-3H,3-benzazepine]",200 mg/kg,10 mg/kg,Negative,Positive,–
"COc1ccc2c(c1)CCN(CC=C(C)C)CC2 [Example 3, 3-(3,3-Dimethylallyl)-7-methoxy-1,2,4,5-tetrahydro-3H,3-benzazepine]",50 mg/kg,30 mg/kg,Negative,Positive,–
"CC(C)=CCN1CCc2ccc(OC(=O)C34CC5CC(CC(C5)C3)C4)cc2CC1 [Example 6, 7-(Adamantanecarbonyloxy)-3-(3,3-dimethylallyl)-1,2,4,5-tetrahydro-3H,3-benzazepine hydrochloride]",> 300 mg/kg,10 mg/kg,Positive,–,–
"Oc1ccc2c(c1)CCN(CC1CC1)CC2 [Example 8, 3-Cyclopropylmethyl-7-hydroxy-1,2,4,5-tetrahydro-3H,3-benzazepine]",30 mg/kg,20 mg/kg,Positive,Positive,–

Compound,LD50 [1],MTD [1],Narcotic Antagonism [2],Local Anesthetic Sciatic Block [3],further results
"Oc1ccc2c(c1)CCN(CC1CCC1)CC2 [Example 9, 3-Cyclobutylmethyl-7-hydroxy-1,2,4,5-tetrahydro-3H,3-benzazepine]",80 mg/kg,20 mg/kg,Negative,Positive,–
"C=CCN1CCc2ccc(O)cc2CC1 [Example 11, 3-Allyl-7-hydroxy-1,2,4,5-tetrahydro-3H,3-benzazepine]",50 mg/kg,20 mg/kg,Positive,Positive,ED50 ([4]; ip): 35 mg/kg; ED50 ([4]; po): > 316 mg/kg; ED50 ([5]; po): > 316 mg/kg
"COc1ccc2c(c1)CCN(CC1CCCC1)CC2 [Example 12, 3-Cyclopentylmethyl-7-methoxy-1,2,4,5-tetrahydro-3H,3-benzazepine]",–,–,–,–,ED50 ([4]; ip): 45 mg/kg; ED50 ([4]; po): > 178 mg/kg; ED50 ([5]; po): > 178 mg/kg
"COc1ccc2c(c1)CCN(CC1CCC1)CC2 [Example 13, 3-Cyclobutylmethyl-7-methoxy-1,2,4,5-tetrahydro-3H,3-benzazepine]",80 mg/kg,30 mg/kg,Negative,–,–
"CCN1CCc2ccc(OC)cc2CC1 [Example 20, 3-Ethyl-7-methoxy-1,2,4,5-tetrahydro-3H,3-benzazepine]",60 mg/kg,1 mg/kg,Negative,Positive,ED50 ([4]; ip): 15 mg/kg; ED50 ([4]; po): > 125 mg/kg; ED50 ([5]; po): > 125 mg/kg; ED50 ([5]; sc): > 32 mg/kg
"CCN1CCc2ccc(O)cc2CC1 [Example 21, 3-Ethyl-7-hydroxy-1,2,4,5-tetrahydro-3H,3-benzazepine]",80 mg/kg,30 mg/kg,Positive,–,–
"CCCN1CCc2ccc(OC)cc2CC1 [Example 22, 7-Methoxy-3-n-propyl-1,2,4,5-tetrahydro-3H,3-benzazepine]",50 mg/kg,30 mg/kg,Positive,–,ED50 ([4]; ip): 26 mg/kg; ED50 ([4]; po): > 316 mg/kg; ED50 ([5]; po): > 316 mg/kg; ED50 ([5]; sc): > 32 mg/kg
"COc1ccc2c(c1)CC(C)NCC2 (centres unmarked) [Example 32, 8-Methoxy-2-methyl-1,2,4,5-tetrahydro-3H,3-benzazepine]",~60 mg/kg,~10 mg/kg,Negative,Positive,–
"COc1ccc2c(c1)CC(C)N(CC=C(C)C)CC2 (centres unmarked) [Example 33, 3-(3,3-Dimethylallyl)-8-methoxy-2-methyl-1,2,4,5-tetrahydro-3H,3-benzazepine hydrochloride]",50 mg/kg,1 mg/kg,Negative,–,–
"COc1ccc2c(c1)CC(C)N(CC1CC1)CC2 (centres unmarked) [Example 42, 3-Cyclopropylmethyl-8-methoxy-2-methyl-1,2,4,5-tetrahydro-3H,3-benzazepine hydrochloride]",60 mg/kg,10 mg/kg,Negative,–,–
"COc1ccc2c(c1)CC(C)N(CC=Cc1ccccc1)CC2 (centres unmarked) [Example 44, 8-Methoxy-2-methyl-3-(3-phenylallyl)-1,2,4,5-tetrahydro-3H,3-benzazepine hydrochloride]",60 mg/kg,10 mg/kg,Negative,Insoluable,–
"COc1ccc2c(c1)CC(C)N(CCc1ccc(O)cc1)CC2 (centres unmarked) [Example 58, 3-(P-Hydroxyphenethyl-8-methoxy-2-methyl-1,2,4,5-tetrahydro-3H,3-benzazepine hydrochloride]",> 300 mg/kg,1 mg/kg,Negative,Insoluble,–
"COc1ccc2c(c1)CC(C)N(CCc1ccccc1C)CC2 (centres unmarked) [Example 59, 3-(o-Methylphenethyl)-8-methoxy-2-methyl-1,2,4,5-tetrahydro-3H,3-benzazepine hydrochloride]",~60 mg/kg,0.3 mg/kg,Negative,Insoluble,–
"Oc1ccc2c(c1)CCN(Cc1ccco1)CC2 [Example 60, 3-Furfuryl-7-hydroxy-1,2,4,5-tetrahydro-3H,3-benzazepine hydrochloride]",~200 mg/kg,10 mg/kg,Negative,Positive,–
"COc1ccc(CCN2CCc3ccc(OC)cc3CC2C)cc1 (centres unmarked) [Example 61, 8-Methoxy-3-(p-methoxyphenethyl-2-methyl-1,2,4,5-tetrahydro-3H,3-benzazepine hydrochloride]",~60 mg/kg,3 mg/kg,Negative,Positive,–
"CN1CC[C@]23c4c5ccc(O)c4O[C@H]2[C@@H](O)C=C[C@H]3[C@H]1C5 [Morphine, reference compound]",–,–,–,–,Hot Plate ED50 ([4]; IP): 2.5 mg/kg; Hot Plate ED50 ([4]; PO): 14 mg/kg; Writhing ED50 ([5]; PO): 3 mg/kg
